The conditions of the data set: 101.33 kPa, Liquid; for speed of sound: Pulse-echo method; for mass density: Vibrating tube method.

± gives the expanded uncertainty stated by the source.

For the molecule `CNc1ccccc1` [N-methylaniline], the speed of sound reads like this: (293.15 K) 1582.7 ± 2.2 m/s; (298.15 K) 1564.7 ± 2.2 m/s; (303.15 K) 1545.8 ± 2.2 m/s. The mass density is, setting by setting: (293.15 K) 986.444 ± 0.82 kg/m3; (298.15 K) 982.487 ± 0.82 kg/m3; (303.15 K) 978.541 ± 0.81 kg/m3.
Take `C1CCCCC1` [cyclohexane]: the speed of sound runs as follows: (293.15 K) 1278 ± 1 m/s; (298.15 K) 1253.6 ± 0.9 m/s; (303.15 K) 1229.9 ± 0.9 m/s. The mass density by setting is: (293.15 K) 778.706 ± 0.15 kg/m3; (298.15 K) 774.018 ± 0.16 kg/m3; (303.15 K) 769.297 ± 0.16 kg/m3.
As to `CCCCCCC` [heptane], the speed of sound is, setting by setting: (293.15 K) 1150.9 ± 0.9 m/s; (298.15 K) 1129.6 ± 0.9 m/s; (303.15 K) 1111.2 ± 0.9 m/s. The mass density (293.15 K) is reported as 683.845 ± 0.18 kg/m3, the mass density (298.15 K) amounted to 679.603 ± 0.18 kg/m3 and the mass density (303.15 K) is listed as 675.532 ± 0.19 kg/m3.
Take `Cc1ccccc1` [toluene]: the speed of sound is 1325.8 ± 0.9 m/s (293.15 K), 1304.4 ± 0.8 m/s (298.15 K) and 1283.7 ± 0.8 m/s (303.15 K). The mass density runs as follows: (293.15 K) 866.98 ± 0.1 kg/m3; (298.15 K) 862.295 ± 0.11 kg/m3; (303.15 K) 857.725 ± 0.11 kg/m3.

As a reminder, the speed of sound is the propagation velocity of pressure waves in the medium. Broadly, the mass density is the mass of a sample divided by its volume.
